Results published in article PMC10142183, “Optimization of polymyxin B regimens for the treatment of carbapenem-resistant organism nosocomial pneumonia: a real-world prospective study” (Critical Care, 2023).
Positions of bridges follow the written chain, without caps; N, C: chain ends. Non-standard residues stand in square brackets, D forms with d. Residues, ends and D or L forms follow the SMILES beside them. *: point of attachment. X1 = CC[C@H](C)CCCCC(=O)*; Dab = NCC[C@H](N)C(=O)O

Experiments:
[1] = Population PK model and plasma exposure in critically ill patients (HPLC-MS/MS, Phoenix NLME); assay type: in vivo, human; set-up: AUCss, 24h: concentration or dose not given beside the values
Experimental: Polymyxin B was given to all patients empirically as a loading dose of 100–200 mg followed by a maintenance dose of 40–100 mg every 12 h for at least 3 days. The infusion time was at least 1 h. Aerosol delivery of polymyxin B (25 mg or 50 mg twice daily) was using a vibrating mesh nebulizer, synchronized with the inspiratory cycle of the ventilator. Two to six blood samples (2 mL) were randomly collected immediately before the seventh dose of polymyxin B and at 0, 1, 2, 4, 6, 8 and 10 h after the end of infusion. The supernatant was immediately stored at − 80 °C until analysis.
An established high-performance liquid chromatography-tandem mass spectrometry (HPLC–MS/MS) was used to measure the concentrations of polymyxin B1 and polymyxin B2 as described previously by the authors’ laboratory (The total concentration of polymyxin B = [polymyxin B1 concentration/polymyxin B1 molecular + polymyxin B2 concentration/polymyxin B2 molecular]*total polymyxin B molecular). The interday precision was < 12%, the intraday precision was < 9%, and the accuracy ranged from 96.1 to 110.4%. The limit of quantification (LLOD) was 0.03 mg/L, and all of the polymyxin B concentrations detected were over LLOD.
The Phoenix NLME program (version 8.1. Pharsight, A Certara Company, USA) with the method of first-order conditional estimation-extended least square method (FOCE-ELS) was used to develop the population PK model by analyzing polymyxin B concentration. The objective function value (OFV), goodness-of-fit plots and the reasonable of population PK parameters were used to selection of the structure model. The stepwise covariate modeling (SCM) approach was used to test the covariate model in this analysis; age, sex, body weight, alanine aminotransferase (ALT), aspartate aminotransferase (AST), total bilirubin (TBIL), direct bilirubin (DBIL), serum albumin (ALB) and CrCL were evaluated as the covariates. The SCM consists of a forward selection step (the criterion is p < 0.05 for ΔOFV decreased ≥ 3.84) and a backward elimination step (the criterion is p < 0.001 for ΔOFV increased ≥ 10.83). In addition, the goodness-of-fit plots were used to assess the validity of the population PK model, the prediction-corrected visual predictive check (pcVPC) was used to assess the predictive performance of the key models. The bootstrap method was used to assess the accuracy.
The PK/PD indices included AUCss,24 h, AUCss,24 h/MIC, the peak and trough concentration at steady state (Cmax,ss and Cmin,ss), Cmax,ss /MIC and Cmin,ss /MIC. AUCss,24 h, Cmax,ss and Cmin,ss were calculated based on the empirical Bayesian (EBEs). For those patients with more than one baseline pathogen, AUCss,24 h/MIC, Cmax,ss /MIC and Cmin,ss /MIC evaluations were based on the pathogen with the highest MIC value.

[2] = tested on: CRO nosocomial pneumonia; assay: PK/PD analysis for clinical efficacy in CRO nosocomial pneumonia; assay type: in vivo, human
Experimental: This prospective study was conducted at two intensive care units (ICU) between January 2020 and December 2021 in the Second Xiangya Hospital of Central South University (Changsha, China). […] The exclusion criteria were as follows: (a) concomitant lung cancer with obstructive pneumonitis or cystic fibrosis; (b) solid organ transplantation; (c) hematologic malignancies and hematopoietic cell transplant recipients; (d) receiving renal replacement therapy. HAP was defined according to the 2016 clinical practice guidelines of the Infectious Diseases Society of America and the American Thoracic Society. Determination of carbapenem susceptibility of CRO was followed by the European Committee on Antimicrobial Susceptibility Testing (EUCAST). Updated EUCAST Clinical Breakpoints of polymyxin B were sensitivity (S ≤ 2 mg/L) and drug resistance (R > 2 mg/L). The antimicrobial susceptibility testing was performed using the VITEK-2 Compact system with VITEK cards (0.5–16 mg/L for colistin) (bioMérieux, France). The following information was extracted from the electronic medical records: demographic and co-morbidity profiles, clinical and microbiological features of the infections, and the antimicrobial treatment regimens. Creatinine clearance (CrCL) was calculated using the Cockcroft–Gault equation. The endpoint was clinical efficacy and 30-day all-cause mortality. Assessment of clinical efficacy was conducted at the end of treatment, and 30-day mortality was recorded from the start of polymyxin B treatment. This prospective study was approved by the Ethics Committee of the Second Xiangya Hospital, Central South University. Informed consent was obtained from all patients or legal representatives of the patients (No. ChiCTR1900022231).
Clinical outcomes were classified as clinical success (CS) and clinical failure (CF), and were assessed by two physicians. CS was defined as a composite of survival; hemodynamic stability; body temperature < 38 °C, improved biochemistry indicators of infection; stable or improved PaO2/FiO2 ratio. Additionally, for patients with bacteremia, microbiological cure (no growth of the initial isolate in blood cultures) must be achieved by the end of the treatment. […] 30-day all-cause mortality was recorded from the start of polymyxin B treatment.
Variables potentially related to clinical efficacy and 30-day all-cause mortality were assessed, including: demographics, co-morbidities, clinical conditions, dosage regimen and concentration of polymyxin B. To develop receiver operating characteristic (ROC) curves, the PK/PD indices AUCss,24 h/MIC, Cmax,ss/MIC and Cmin,ss/MIC were used as predictors of clinical efficacy. The area under the diagnostic curve (AUCROC) was calculated to evaluate the correlation of the above parameters with clinical efficacy and 30-day all-cause mortality. Youden index of the ROC curves was calculated by "sensitivity + specificity-1", and the values corresponding to the maximum Youden index is the optimal cutoff point value of the PK/PD indices.
Statistical analysis was performed with SPSS 24.0 (SPSS, IBM Company, Chicago, IL, USA) software. Continuous variables are presented as the mean ± standard deviation (SD) if normally distributed and were compared using Student’s t tests. The median and interquartile range (IQR) are presented for abnormally distributed data, and the Mann–Whitney U test was used. Categorical variables are expressed as counts and percentages, and the chi-square test or Fisher’s exact test was used. Spearman’s rank correlation coefficient (r) was used to analyze the correlation between Cmin,ss, Cmax,ss and AUCss,24 h. Univariate analysis was performed for all variables to identify possible predictors for clinical efficacy. Variables with a p < 0.05 were entered into the multivariate logistic regression models. […]

[3] = tested on: CRO nosocomial pneumonia; assay: 30-day all-cause mortality in CRO nosocomial pneumonia; assay type: in vivo, human; conditions: Cox regression, p = 0.001
Experimental: This prospective study was conducted at two intensive care units (ICU) between January 2020 and December 2021 in the Second Xiangya Hospital of Central South University (Changsha, China). […] The exclusion criteria were as follows: (a) concomitant lung cancer with obstructive pneumonitis or cystic fibrosis; (b) solid organ transplantation; (c) hematologic malignancies and hematopoietic cell transplant recipients; (d) receiving renal replacement therapy. HAP was defined according to the 2016 clinical practice guidelines of the Infectious Diseases Society of America and the American Thoracic Society. Determination of carbapenem susceptibility of CRO was followed by the European Committee on Antimicrobial Susceptibility Testing (EUCAST). […] Creatinine clearance (CrCL) was calculated using the Cockcroft–Gault equation. […] Assessment of clinical efficacy was conducted at the end of treatment, and 30-day mortality was recorded from the start of polymyxin B treatment. […]
Clinical outcomes were classified as clinical success (CS) and clinical failure (CF), and were assessed by two physicians. […] 30-day all-cause mortality was recorded from the start of polymyxin B treatment. […]
Statistical analysis was performed with SPSS 24.0 (SPSS, IBM Company, Chicago, IL, USA) software. […] Categorical variables are expressed as counts and percentages, and the chi-square test or Fisher’s exact test was used. […]

[4] = critically ill patients; weight-based regimen 1.25-1.5 mg/kg every 12 h; cited from earlier work
Experimental: At present, weight-based dosing regimen (1.25–1.5 mg/kg every 12 h) is recommended for polymyxin B [17, 18]. However, polymyxin B concentration varies widely in critically ill patients with this regimen, and almost 30% patients cannot achieve AUCss,24 h values within the target therapeutic window. […] Due to these inconsistent results, further research is needed to improve the charac ...

[5] = 30-day non-survival group (n = 28), median (IQR)
[6] = 30-day survival group (n = 77), median (IQR)
[7] = clinical failure group (n = 35), median (IQR)
[8] = clinical success group (n = 70), median (IQR)
[9] = final model estimate, two-compartment population PK, 105 patients, 295 plasma concentrations
[10] = median of 105 patients, plasma, empirical Bayesian estimates

CC[C@H](C)CCCCC(=O)N[C@@H](CCN)C(=O)N[C@H](C(=O)N[C@@H](CCN)C(=O)N[C@H]1CCNC(=O)[C@H]([C@@H](C)O)NC(=O)[C@H](CCN)NC(=O)[C@H](CCN)NC(=O)[C@H](CC(C)C)NC(=O)[C@@H](Cc2ccccc2)NC(=O)[C@H](CCN)NC1=O)[C@@H](C)O [polymyxin B] (X1-[Dab]T[Dab][Dab][Dab][dF]L[Dab][Dab]T; lactam 4-C)
AUCss, 24h [1, 5]: 62.1 (46.3, 83.2) mg·h/L | Cmax,ss [1, 5]: 5.4 (4.6, 6.1) μg/mL | Cmin,ss [1, 5]: 2.1 (1.6, 2.6) μg/mL | Cmin,ss /MIC [1, 5]: 2.2 (1.6, 2.7) | AUCss, 24h [1, 6]: 69.4 (58.5, 86.9) mg·h/L | Cmax,ss [1, 6]: 6.5 (5.8, 7.2) μg/mL | Cmin,ss [1, 6]: 2.2 (1.9, 2.5) μg/mL | Cmin,ss /MIC [1, 6]: 2.2 (1.9, 2.5) | CL (clearance in central compartment) ([1]; bootstrap method estimate): 1.56 L/h | CLd (clearance between central and peripheral compartment) ([1]; bootstrap method estimate): 2.41 L/h | Vc (volume distribution in central compartment) ([1]; bootstrap method estimate): 12.5 L | Vp (volume in peripheral compartment) ([1]; bootstrap method estimate): 29.9 L | AUCss, 24h [1, 7]: 60.6 (43.5, 66.6) mg·h/L | Cmax,ss [1, 7]: 5.1 (3.7, 6.9) μg/mL | Cmin,ss [1, 7]: 1.8 (1.0, 2.5) μg/mL | Cmin,ss /MIC [1, 7]: 1.7 (0.9, 1.9) | AUCss, 24h [1, 8]: 78.6 (62.4, 84.2) mg·h/L | Cmax,ss [1, 8]: 6.8 (5.0, 7.6) μg/mL | Cmin,ss [1, 8]: 2.4 (1.6, 2.8) μg/mL | Cmin,ss /MIC [1, 8]: 2.4 (1.4, 3.1) | CLd (clearance between central and peripheral compartment) [1, 9]: 2.41 L/h | Vc (volume distribution in central compartment) [1, 9]: 12.5 L | Vp (volume in peripheral compartment) [1, 9]: 29.9 L | CL (clearance in central compartment) ([1]; final model estimate, two-compartment population PK, 105 patients, 295 plasma concentrations, IV 100-200 mg loading then 40-100 mg every 12 h): 1.56 L/h | AUCss, 24h [1, 10]: 67.2 mg·h/L | Cmax,ss (peak concentration at steady state) [1, 10]: 5.9 mg/L | Cmin,ss (trough concentration at steady state) [1, 10]: 1.9 mg/L | OR of combination of inhaled polymyxin B for clinical efficacy ([2]; 51 patients with AUCss,24 h/MIC < 66.9, 95% CI 0.06-0.79, p = 0.022): 0.21 | OR of combination of inhaled polymyxin B for clinical efficacy ([2]; 54 patients with AUCss,24 h/MIC ≥ 66.9, 95% CI 0.09-2.46, p = 0.365): 0.46 | AOR of dose normalized-AUCss,24 h/MIC for efficacy ([2]; Covariate-Adjusted Residuals method, 95% CI 0.38-1.01, p = 0.056): 0.62 | clinical success rate ([2]; IV + IH group, AUCss,24 h/MIC ≥ 66.9 (54 patients)): 90.0% | clinical success rate ([2]; IV group, AUCss,24 h/MIC < 66.9 (51 patients)): 35.1% | clinical success rate ([2]; IV group, AUCss,24 h/MIC ≥ 66.9 (54 patients)): 82.3% | favorable clinical outcomes in pneumonia patients with AUCss,24 h > 66.9 ([2]; MIC mostly 1 mg/L): 85.2% | optimal cutoff point value of AUCss,24 h/MIC for clinical efficacy ([2]; ROC curve, largest Youden index, patients receiving combination therapy): 66.9 | clinical success rate ([2]; all 105 patients (70/105), assessed at end of treatment, combination therapy with another antimicrobial): 66.7% | clinical success rate ([2]; intravenous plus inhaled (IV + IH) group, AUCss,24 h/MIC < 66.9 (51 patients)): 71.4% | Adjusted OR (95% CI) of AUCss,24 h/MIC for clinical efficacy ([2]; multivariate logistic regression, p = 0.009): 0.97 (0.95–0.99) | Adjusted OR (95% CI) of daily dose (mg) for clinical efficacy ([2]; multivariate logistic regression, p = 0.028, listed as PMB): 0.98 (0.97–0.99) | Adjusted OR (95% CI) of combination of inhaled polymyxin B for clinical efficacy ([2]; multivariate logistic regression, p = 0.039, aerosol 25 or 50 mg twice daily, listed as PMB): 0.32 (0.11–0.94) | HR (95% CI) of PMB treatment duration (day) for 30-day mortality [3]: 0.67 (0.53-0.85) | patients who cannot achieve AUCss,24 h values within the target therapeutic window [4]: ~30%
